Reference: US11478482B2 (NATIONAL UNIVERSITY CORPORATION TOKAI NATIONAL HIGHER …, priority 2018, dated 2022)
Counter-ions that a name gives are not always drawn.

How the values were obtained:
MK-801-treated mice [1] = experiment: Social behavior test in MK-801-treated mice; assay type: in vivo
Protocol: Before conducting the experiment, test mice were kept in breeding cages one by one for 2 days. On the third day, mice that had been normally group-reared in another breeding cage were placed as invading mice into the cages of the test mice, and social behaviors of the test mice, such as tracking and sniffing, were measured for 5 minutes (Ibi et al., 2010).

MK-801-treated mice [2] = experiment: Visual discrimination test in MK-801-treated mice
C57BL/6 mice = experiment: Spontaneous locomotor activity; assay type: in vivo
Protocol: (§1) Mice were placed one by one in measurement cages (25 cm×30 cm×18 cm). Immediately after the placement, spontaneous locomotor activity of mice was measured using a measurement device equipped with infrared light (Brain Science Idea, Osaka, Japan) (Ibi et al., 2010).

ARHGAP10 mutant mice = experiment: Meth-induced visual discrimination learning impairment in ARHGAP10 mutant mice; assay type: in vivo; conditions: patient-type ARHGAP10 mutant mice
[3] = system: Meth-treated mice (C57BL/6); experiment: Meth-induced visual discrimination learning impairment in C57BL/6 mice (wild type); assay type: in vivo; conditions: for Meth-induced (1.0 mg/kg) visual discrimination impairment: meth-treated C57BL/6 mice
MK-801-treated mice [4] = experiment: MK-801-induced hyperactivity (hypermobility); assay type: in vivo; conditions: MK-801 0.3 mg/kg
Protocol: as §1
After 5 minutes, MK-801 (0.3 mg/kg) was intraperitoneally administered. The amount of locomotor activity started to be measured immediately after the administration (FIG. 6, panel A).

[5] = system: dopaminergic neurons induced from iPS cells of patients with ARHGAP10 mutation; experiment: Neurite length of iPS cell-derived dopaminergic neurons (IncuCyte NeuroTrack); assay type: cell-based, human; conditions: 72 hours after addition of inhibitor
Protocol: Dopaminergic neurons were induced from iPS cells of healthy subjects and patients with ARGHAP10 mutation. The induction method was performed according to a method already published (Transl Psychiatry. 2018 Jul. 19; 8(1): 129; and patent application PCT/JP2018/015304). To give an overview, iPS cells were cultured in an iPS cell medium supplemented with SB431542 (3 μM), CHIR99021 (3 μM), and dorsomorphin (3 μM) for 7 days (day 0 to day 7). The cultured cells were then dispersed with TrypLE™ select (Thermo Fisher Scientific Inc.) and passed through a cell strainer. […]
Dopaminergic progenitor cells were seeded onto a culture dish coated with poly-L-ornithine/laminin/fibronectin (poly-L-ornithine, laminin, and fibronectin), and an Rho kinase inhibitor was added simultaneously. […] The length of neurites after 72 hours was automatically measured with IncuCyte NeuroTrack (registered trademark).
Dopaminergic neurons were induced from iPS cells derived from healthy subjects and patients with ARHGAP10 mutation. […] The length of neurites was automatically detected and measured with IncuCyte (registered trademark) NeuroTrack (produced by Essen Bioscience).
The length of neurites (mm) per mm^2 was calculated for each field of view, and analysis was performed for 18 fields of view in each group. […]

[6] = fasudil 20 mg/kg i.p., monohydrochloride hemihydrate
[7] = fasudil 20 mg/kg i.p., listed as Fasudil, monohydrochloride hemihydrate

C[C@]12N[C@H](Cc3ccccc31)c1ccccc12 [MK-801, (+)-MK-801 maleate]
time of social behavior (MK-801-treated mice [1]; MK-801 0.1 mg/kg i.p., compared with control mice): significantly reduced | correct response rate in the visual discrimination learning test (MK-801-treated mice [2]; MK-801 0.1 mg/kg i.p., C57BL/6 mice, saline-treated 90%): about 70%

O=S(=O)(c1cccc2cnccc12)N1CCCNCC1 [fasudil, hexahydro-1-(5-isoquinolinesulfonyl)-1H-1,4-diazepine monohydrochloride hemihydrate]
Spontaneous locomotor activity (C57BL/6 mice; fasudil 20 mg/kg i.p., Table 1): ± | Spontaneous locomotor activity (C57BL/6 mice; fasudil 20 mg/kg i.p., versus saline-treated mice): same level of spontaneous locomotor activity as the saline-treated mice | Spontaneous locomotor activity (C57BL/6 mice; fasudil 30 mg/kg i.p., versus saline-treated mice, listed as Fasudil, monohydrochloride hemihydrate): Decreased | Spontaneous locomotor activity (C57BL/6 mice; fasudil 30 mg/kg i.p., versus saline-treated mice, monohydrochloride hemihydrate): significant decrease | Meth-induced (0.3 mg/kg) visual discrimination impairment (ARHGAP10 mutant mice; fasudil 3 mg/kg i.p.): Improved | Meth-induced (0.3 mg/kg) visual discrimination impairment (ARHGAP10 mutant mice; fasudil 10 mg/kg i.p.): Improved | Meth-induced (0.3 mg/kg) visual discrimination impairment (ARHGAP10 mutant mice; [6]): significantly improved | Meth-induced (1.0 mg/kg) visual discrimination impairment ([3]; fasudil 3 mg/kg i.p.): Improvement | Meth-induced (1.0 mg/kg) visual discrimination impairment ([3]; fasudil 10 mg/kg i.p., listed as Fasudil, monohydrochloride hemihydrate): Improved | Meth-induced (1.0 mg/kg) visual discrimination impairment ([3]; fasudil 10 mg/kg i.p., monohydrochloride hemihydrate): improved | Meth-induced (1.0 mg/kg) visual discrimination impairment [3, 7]: Improved | Meth-induced (1.0 mg/kg) visual discrimination impairment [3, 6]: improved | MK-801-induced hypermobility (MK-801-treated mice [4]; fasudil 10 mg/kg i.p.): ± | MK-801-induced hypermobility (MK-801-treated mice [4]; [7]): Improved | MK-801-induced hypermobility (MK-801-treated mice [4]; [6]): significantly inhibited | MK-801-induced social behavior disorder (MK-801-treated mice [1]; fasudil 5 mg/kg i.p., MK-801 0.1 mg/kg): ± | MK-801-induced social behavior disorder (MK-801-treated mice [1]; fasudil 10 mg/kg i.p., MK-801 0.1 mg/kg, listed as Fasudil, monohydrochloride hemihydrate): Improved | MK-801-induced social behavior disorder (MK-801-treated mice [1]; fasudil 10 mg/kg i.p., MK-801 0.1 mg/kg, monohydrochloride hemihydrate): returned to the same level as the social behavior in control mice | MK-801-induced social behavior disorder (MK-801-treated mice [1]; fasudil 20 mg/kg i.p.): ± | length of neurites [5]: improving effects | MK-801-induced (1.0 mg/kg) visual discrimination disorder (MK-801-treated mice [2]; fasudil 3 mg/kg i.p.): ± | MK-801-induced (1.0 mg/kg) visual discrimination disorder (MK-801-treated mice [2]; [7]): Improved | MK-801-induced (1.0 mg/kg) visual discrimination disorder (MK-801-treated mice [2]; [6]): returned to the control level | test completion rate, latency to correct response, latency to obtain the reward (MK-801-treated mice [2]; fasudil 3, 10 or 20 mg/kg i.p., MK-801-treated mice): none of the groups showed significant changes

Methamphetamine hydrochloride
correct response rate in the visual discrimination learning test ([3]; meth 1.0 mg/kg, C57BL/6 mice, saline-treated about 90%): about 70%
